Test results: PubChem BioAssay (NCI)
Values joined by “and” are separate entries in the source; they are usually repeats but may differ in a detail not shown here. Equal values may be shown once.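 Values below derive from 48-hour exposures of cells grown in 96-well plates, with endpoints linearly interpolated between the two concentrations bracketing the appropriate inhibition level. Here, GI50 denotes the concentration required for 50% inhibition of growth. TGI marks complete inhibition of growth.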

Experiments:
Test in all cases: inhibition of tumour cell growth, NCI panel, 48 h
[1] = system: 786-0 renal
[2] = system: HCT-15 colon
[3] = system: HOP-62 NSCLC
[4] = system: HT29 colon
[5] = system: KM12 colon
[6] = system: SF-295 CNS
[7] = system: SF-539 CNS
[8] = system: SK-MEL-2 melanoma
[9] = system: SNB-75 CNS
[10] = system: TK-10 renal

CCn1c2ccc(O)cc2c2c(C)c3c[n+](C)ccc3c(C)c21
GI50 [1]: 0.52 µM | TGI [1]: > 100 µM | GI50 [2]: 29.4 µM | TGI [2]: > 100 µM | GI50 [3]: 1.18 µM | TGI [3]: 21 µM | GI50 [4]: 13.2 µM | TGI [4]: > 100 µM | GI50 [5]: 2 µM | TGI [5]: 23.7 µM | GI50 [6]: 0.748 µM | TGI [6]: 31.4 µM | GI50 [7]: 0.873 µM | TGI [7]: 14.8 µM | GI50 [8]: 3.91 µM | TGI [8]: 20.1 µM | GI50 [9]: 1.18 µM | TGI [9]: 35.8 µM | GI50 [10]: 24.3 µM | TGI [10]: > 100 µM

CC(=O)NC(CCCCNC(=O)NCCCl)C(=O)NCc1ccccc1 (configuration not stated)
TGI [1]: > 100 µM | TGI [2]: > 100 µM | TGI [3]: > 100 µM | TGI [4]: > 100 µM | TGI [5]: > 100 µM | TGI [6]: > 100 µM | TGI [7]: > 100 µM | TGI [8]: > 100 µM | TGI [9]: > 100 µM | TGI [10]: > 100 µM

Cc1[nH]nc(C(=O)n2nc(N)c3ccccc32)c1[N+](=O)[O-]
GI50 [1]: > 100 µM | TGI [1]: > 100 µM | GI50 [2]: > 63.5 µM | TGI [2]: > 100 µM | GI50 [3]: > 100 µM | TGI [3]: > 100 µM | GI50 [4]: > 100 µM | TGI [4]: > 100 µM | GI50 [5]: > 100 µM | TGI [5]: > 100 µM | GI50 [6]: > 100 µM | TGI [6]: > 100 µM | GI50 [7]: > 100 µM | TGI [7]: > 100 µM | GI50 [8]: > 100 µM | TGI [8]: > 100 µM | GI50 [9]: 26.9 µM | TGI [9]: > 88.9 µM | GI50 [10]: > 100 µM | TGI [10]: > 100 µM

CCOP(=O)(OCC)OC(C#N)c1ccc(-c2ccccc2)cc1 (configuration not stated)
TGI [1]: 31.6 µM | TGI [2]: 32.8 µM | TGI [3]: > 100 µM | TGI [4]: 34.3 µM | TGI [5]: 33.2 µM | TGI [6]: > 100 µM | TGI [7]: 38.9 µM | TGI [8]: > 100 µM | TGI [9]: 64.6 µM | TGI [10]: 89.2 µM

CN1CC[C@]2(C)c3ccc(O)cc3CC3CCCC1C32C (some centres not stated)
TGI [1]: > 100 µM | TGI [2]: > 100 µM | TGI [3]: > 100 µM | TGI [4]: > 100 µM | TGI [5]: > 100 µM | TGI [6]: > 100 µM | TGI [7]: > 100 µM | TGI [8]: > 100 µM | TGI [9]: > 100 µM | TGI [10]: > 100 µM

COC1C2C=CC(C2)[C@H]1[N+](=O)[O-] (some centres not stated)
TGI [1]: > 100 µM | TGI [2]: > 100 µM | TGI [3]: > 100 µM | TGI [4]: > 100 µM | TGI [5]: > 100 µM | TGI [6]: > 100 µM | TGI [7]: > 100 µM | TGI [8]: > 100 µM | TGI [9]: > 100 µM | TGI [10]: > 100 µM

O=C1C(c2ccccc2)=[N+]([O-])c2ccccc21
TGI [1]: 34.1 µM | TGI [2]: 37.9 µM | TGI [3]: 37.4 µM | TGI [4]: 42.1 µM | TGI [5]: 55.2 µM | TGI [6]: 32.6 µM | TGI [7]: 32.8 µM | TGI [8]: 28.3 µM | TGI [9]: 37.5 µM | TGI [10]: 37.4 µM

COC(=O)C(CC(=O)Nc1ccc(C)cc1)C(=O)C(=O)Nc1ccccc1C(C)C (configuration not stated)
TGI [1]: > 100 µM | TGI [2]: > 100 µM | TGI [3]: > 100 µM | TGI [4]: > 100 µM | TGI [5]: > 100 µM | TGI [6]: > 100 µM | TGI [7]: > 100 µM | TGI [8]: > 100 µM | TGI [9]: > 100 µM | TGI [10]: > 100 µM

CN1C(=O)N(C)C2C1NN=c1s/c(=C\c3ccc(F)cc3)c(=O)n12 (configuration not stated)
GI50 [1]: 7.55 µM | TGI [1]: > 100 µM | GI50 [2]: 0.915 µM | TGI [2]: > 100 µM | GI50 [3]: 3.48 µM | TGI [3]: > 100 µM | GI50 [4]: 0.951 µM | TGI [4]: > 100 µM | GI50 [5]: 1.65 µM | TGI [5]: > 100 µM | GI50 [6]: 2.45 µM | TGI [6]: > 100 µM | GI50 [7]: 2.1 µM | TGI [7]: 5.72 µM | GI50 [8]: 4.13 µM | TGI [8]: > 100 µM | GI50 [9]: 1.05 µM | TGI [9]: 5.22 µM | GI50 [10]: 6.06 µM | TGI [10]: > 100 µM

COC(=O)C1=C(C(=O)OC)SC(=CC#CC=C2SC(C(=O)OC)=C(C(=O)OC)S2)S1
TGI [1]: 18.2 µM | TGI [2]: > 45.1 µM | TGI [3]: 12.2 µM | TGI [4]: > 100 µM | TGI [5]: > 100 µM | TGI [6]: 11.8 µM | TGI [7]: 4.86 µM | TGI [8]: 64.3 µM | TGI [9]: 19.3 µM | TGI [10]: 23.9 µM

Nc1ccc(C(=O)CC(N)C(=O)O)cc1O (configuration not stated)
TGI [1]: > 100 µM | TGI [2]: > 100 µM | TGI [3]: > 100 µM | TGI [4]: > 100 µM | TGI [5]: > 100 µM | TGI [6]: > 100 µM | TGI [7]: > 100 µM | TGI [8]: > 100 µM | TGI [9]: > 100 µM | TGI [10]: > 100 µM

CC[O-].CC[O-].O=S(=O)([O-])c1ccc([O-])c2ncccc12.O=S(=O)([O-])c1ccc([O-])c2ncccc12.[Ti+4]
GI50 [1]: 49 µM | TGI [1]: > 100 µM | GI50 [2]: > 100 µM | TGI [2]: > 100 µM | GI50 [3]: 44 µM | TGI [3]: > 100 µM | GI50 [4]: 52.8 µM | TGI [4]: > 100 µM | GI50 [5]: 96.5 µM | TGI [5]: > 100 µM | GI50 [6]: > 100 µM | TGI [6]: > 100 µM | GI50 [7]: 67.9 µM | TGI [7]: > 100 µM | GI50 [8]: > 100 µM | TGI [8]: > 100 µM | GI50 [9]: 72.8 µM | TGI [9]: > 100 µM | GI50 [10]: > 100 µM | TGI [10]: > 100 µM

CCOC(=O)c1s/c(=N\Nc2nc3ccccc3cc2C2OCCO2)n(Cc2ccccc2)c1C
TGI [1]: > 100 µM | TGI [2]: > 100 µM | TGI [3]: > 100 µM | TGI [4]: > 100 µM | TGI [5]: > 100 µM | TGI [6]: > 100 µM | TGI [7]: > 100 µM | TGI [8]: > 100 µM | TGI [9]: > 100 µM | TGI [10]: > 100 µM

COc1ccc(Cn2c3c(cc(OS(=O)(=O)C(F)(F)F)c2=O)Cc2ccccc2-3)cc1
GI50 [1]: 3.87 µM | TGI [1]: 50 µM and > 100 µM | TGI [2]: 50 µM and > 100 µM | TGI [3]: 50 µM | GI50 [4]: 79 µM | TGI [4]: > 100 µM | GI50 [5]: 41.1 µM | TGI [5]: 50 µM and > 100 µM | GI50 [6]: 31.7 µM | TGI [6]: 50 µM and > 100 µM | GI50 [7]: 5.29 µM | TGI [7]: 50 µM and > 100 µM | GI50 [8]: 14.5 µM | TGI [8]: 50 µM and > 100 µM | GI50 [9]: > 100 µM | TGI [9]: > 100 µM | GI50 [10]: 19.5 µM | TGI [10]: 50 µM and > 100 µM

Cc1cc(C)c(C(=O)c2no[n+]([O-])c2C(=O)c2c(C)cc(C)c(Br)c2C)c(C)c1Br
TGI [1]: 32.8 µM | TGI [2]: 30 µM | TGI [3]: 33.4 µM | TGI [4]: 27.4 µM | TGI [5]: 26.4 µM | TGI [6]: 33.3 µM | TGI [7]: 29.1 µM | TGI [8]: 30.9 µM | TGI [9]: 25.8 µM | TGI [10]: 26.5 µM

COc1ccccc1/C=C/C(=O)c1ccccc1
GI50 [1]: 18.3 µM | TGI [1]: 32.8 µM | GI50 [2]: 3.47 µM | TGI [2]: 14.7 µM | GI50 [3]: 18.8 µM | TGI [3]: 37 µM | GI50 [4]: 5.73 µM | TGI [4]: 26.9 µM | GI50 [5]: 4.04 µM | TGI [5]: 14.3 µM | GI50 [6]: 14.8 µM | TGI [6]: 30.9 µM | GI50 [7]: 16.4 µM | TGI [7]: 30.8 µM | GI50 [8]: 12 µM | TGI [8]: 26.4 µM | GI50 [9]: 13.1 µM | TGI [9]: 27.1 µM | GI50 [10]: 21.2 µM | TGI [10]: 36.5 µM

Cn1c2c(c3ccc(Cl)c(Cl)c31)C(C#N)C1(CCNCC1)NC2=O (configuration not stated)
GI50 [1]: 1.66 µM | TGI [1]: 3.36 µM | GI50 [2]: 2.4 µM | TGI [2]: 7.88 µM | GI50 [3]: 1.47 µM | TGI [3]: 3.93 µM | GI50 [4]: 2.02 µM | GI50 [5]: 1.6 µM | TGI [5]: 3.03 µM | GI50 [6]: 2.46 µM | TGI [6]: 8.1 µM | GI50 [7]: 2.03 µM | TGI [7]: 6.34 µM | GI50 [8]: 2.12 µM | TGI [8]: 4.73 µM | GI50 [9]: 1.14 µM | TGI [9]: 4.72 µM | GI50 [10]: 1.23 µM | TGI [10]: 3.46 µM
